According to paper PMC10088926, “Synthesis, DFT calculations, and anti-proliferative evaluation of pyrimidine and selenadiazolopyrimidine derivatives as dual Topoisomerase II and HSP90 inhibitors” (Journal of Enzyme Inhibition and Medicinal Chemistry, 2023):
Entries after “also recorded” stand apart in the source; their conditions may differ. Where two headings read alike, the source gives them in different places.

Tests used:
[1] = system: HepG-2 cells (human Hepatocellular carcinoma); assay: In vitro cytotoxicity, viability assay (MTT method), HepG-2; format: cell-based; conditions: HepG2, 24 h incubation, triplicate, read-out: IC50 values (mean ± SD) HepG-2
Experimental: (§1) All experiments were conducted in triplicate.
(§2) Scaffold I compounds were characterised by the uracil core attached to the 5,5-dimethyl cyclohexanone moiety through an NH linker and bearing an amino group at position 6. The activity of such compounds could be attributed to the larger number of hydrogen bond donors when compared to compounds with scaffold II. On the other hand, the activity of 5d with scaffold II could be attributed to the nature of the substituent at N1 of the pyrimidine ring being a hydrophobic benzyl group that could be involved in hydrophobic interaction and π-π stacking. Generally, the isosteric substitution of oxo with thioxo at position 2 of the pyrimidine ring lowered the anti-proliferative activity in both scaffolds I and II compounds.

[2] = system: A-549 cells (lung carcinoma); assay: In vitro cytotoxicity, viability assay (MTT method), A-549; format: cell-based; conditions: Homo sapiens, A549, 24 h incubation, triplicate, read-out: IC50 values (mean ± SD) A-549
Experimental: as §1, §2

[3] = system: MCF-7 cells (human breast cancer cell line); assay: In vitro cytotoxicity, viability assay (MTT method), MCF-7; format: cell-based; conditions: MCF7, 24 h incubation, triplicate, read-out: IC50 values (mean ± SD) MCF-7
Experimental: as §1, §2

[4] = system: MCF-7, HepG-2 and A-549 cells; assay: Anti-proliferative screening, classification over the three cell lines; format: cell-based; conditions: compared to methotrexate
Experimental: as §1, §2

Topoisomerase II = target: T1, Topoisomerase II (Homo sapiens, UniProt P11388); assay: In vitro Topoisomerase II enzyme inhibition assay (plasmid-based kit); format: biochemical
T1 construct: purchased
Experimental: (§3) In vitro enzyme inhibitory assay of compounds 3a and 5d was performed against Topoisomerase-II enzyme using Topoisomerase II Assay Kit (plasmid-based)[34] and HSP90 enzyme using HSP90 (C-Terminal) Inhibitor Screening Assay Kit[35]. The procedure of the used kits was done according to the manufacturer’s instructions.
Topoisomerase II inhibitors can cause DNA damage and halt the cell cycle.

HSP90 = assay: In vitro HSP90 enzyme inhibition assay (HSP90 (C-Terminal) Inhibitor Screening Assay Kit); format: biochemical; conditions: read-out: HSP90 IC50 (mean ± SD)
Experimental: as §3
As reported, cancer cell growth and proliferation are inhibited when HSP90 is inhibited.

HepG-2 cells [5] = assay: Flow cytometric analysis of cell-cycle distribution (propidium iodide); format: cell-based, human
Experimental: Cell-cycle analysis was performed by DNA staining with propidium iodide (PI) following the manufacturer’s protocol (Abcam, USA)[36]. HepG-2 cells were cultured following the procedure till exponential growth was reached. After removing the culture media, the cells were rinsed with phosphate buffer. Cells were then treated with 3a and suspended in 66% ethanol on the ice at 4 °C. Then, PI was added together with the RNase staining solution. Incubation was allowed for 20–30 min at 37 °C in the dark. For the preparation of flow cytometry, fixed cells were placed on ice. Podium iodide fluorescence was collected using 488 nm laser illumination.
Thus, it was studied further to determine the mechanism of its cell growth inhibition. The standard PI flow cytometry assay was used to investigate cell cycle distribution and apoptosis induction in HepG-2 cells. […] 3a halts the cell cycle of HepG-2 at the G1-S phase.

HepG-2 cells [6] = assay: Cellular apoptosis analysis (Annexin V-FITC/PI); format: cell-based, human; conditions: HepG-2, 14.31 μM, 24 h; untreated cells 0.58%
Experimental: Annexin V is a protein that has a high affinity to bind to membrane phosphatidylserine (PS) translocated from the inner cellular plasma membrane to the cell surface after apoptosis initiation following the manufacturer protocol (Biovision, USA)[37]. HepG-2 cells in exponential growth were treated with compound 3a and incubated for 24 h. Then, 1–5 × 10^5 were collected via centrifugation and suspended in 500 µL of 1X Binding Buffer, 5 µL of Annexin V-FITC, and 5 µL of propidium iodide were added and allowed to incubate in the dark for 5 min, then Annexin V-FITC binding was quantified by flow cytometry using emission signal detector at 530 nm.
Using HepG-2 cells and the Annexin FITC/PI dual-labelling technique, 3a-induced apoptosis was investigated.

caspase-3 gene = caspase-3 gene expression (RT-PCR) in HepG-2; format: cell-based, human; conditions: HepG-2, compared to control cells
Experimental: (§4) The level of Topoisomerase II, HSP90, and caspase-3 gene expression were assessed using Bio-Rad RT-PCR Kit following the manufacturer’s instructions. HepG-2 cells were exponentially grown and then treated with 3a after treatment with DNA polymerase and fluorescein. The expression of Topoisomerase II, HSP90, and caspase-3 genes was measured fluorometrically.
(§5) A caspase family is a group of cysteine proteases that activates apoptosis through receptor or mitochondrial-dependent cell death. Caspase-3 activation catalyses the cleavage of key cellular proteins, leading to both mitochondrial-dependent and non-dependent cell death. Caspase-3 is also associated with cell rupture and the formation of apoptotic bodies. The effect of 3a on caspase-3 gene expression was studied in HepG-2 cell lines. […] The gene that encodes DNA Topoisomerase II controls the topology of […] during DNA transcription. This gene is a target for anti-proliferative agents by altering enzyme activity. In the present work, the effect of 3a on the expression of the gene encoding Topoisomerase II in the supernatant of HepG-2 cell lines was studied. […] Furthermore, the HSP90 encoding gene interferes with the proper folding of specified protein targets and interferes with ATP binding.

[7] = system: gene encoding Topoisomerase II; assay: Topoisomerase II gene expression (RT-PCR) in HepG-2; format: cell-based, human; conditions: supernatant of HepG-2 cell lines, compared to control cells
Experimental: as §4, §5

gene encoding HSP90 = assay: HSP90 gene expression (RT-PCR) in HepG-2; format: cell-based, human; conditions: supernatant of HepG-2 cell lines, compared to control cells
Experimental: as §4, §5

[8] = In vitro cytotoxicity against normal WI-38 cell line; conditions: human
Description: The viability assay (MTT method)[33] was used to evaluate the cytotoxic activity of the synthesised compounds against three mammalian tumour cell lines obtained from the VACSERA Tissue Culture Unit, namely MCF-7 cells (human breast cancer cell line), HepG-2 cells (human Hepatocellular carcinoma), and A-549 cells (lung carcinoma), as well as the normal WI-38 human cell line for both compounds 3a and 5d. […] 1% Crystal violet stain: it is composed of 0.5% (w/v) crystal violet and 50% methanol, which is then diluted to volume with ddH2O and filtered through a Whatman No.1 filter paper. Dulbecco’s modified Eagle’s medium (DMEM) supplemented with 10% heat-inactivated foetal bovine serum, 1% L-glutamine, HEPES buffer, and 50 μg/mL gentamycin was used to grow the cells. All cells were cultured twice a week and kept at 37 °C in a humidified atmosphere with 5% CO2. In 100 μL of the growth medium, the cells were seeded in a 96-well plate at a cell concentration of 1 × 10^4 cells per well. After 24 h of seeding, a fresh medium containing different concentrations of the test sample was added. A multichannel pipette was used to add serial two-fold dilutions of the tested chemical compound to confluent cell monolayers dispensed into 96-well, flat-bottomed microtiter plates (Falcon, NJ, USA). The microtiter plates were incubated for 24 h at 37 °C in a humidified incubator with 5% CO2. For each concentration of the test sample, three wells were used. […] Glacial acetic acid (30%) was thoroughly mixed into all wells, and the absorbance of the plates was measured. Background absorbance detected in wells without added stain was corrected for in all results. […] Each tested compound’s cytotoxic effect on cells was calculated. To determine the number of viable cells, the optical density was measured using a microplate reader (Sunrise, TECAN, Inc, USA), and the percentage of viability was calculated as [(ODt/ODc)] × 100%, where ODt is the mean optical density of wells treated with the tested sample and ODc is the mean optical density of untreated cells. […]

T1 sequence (P11388 whole entry): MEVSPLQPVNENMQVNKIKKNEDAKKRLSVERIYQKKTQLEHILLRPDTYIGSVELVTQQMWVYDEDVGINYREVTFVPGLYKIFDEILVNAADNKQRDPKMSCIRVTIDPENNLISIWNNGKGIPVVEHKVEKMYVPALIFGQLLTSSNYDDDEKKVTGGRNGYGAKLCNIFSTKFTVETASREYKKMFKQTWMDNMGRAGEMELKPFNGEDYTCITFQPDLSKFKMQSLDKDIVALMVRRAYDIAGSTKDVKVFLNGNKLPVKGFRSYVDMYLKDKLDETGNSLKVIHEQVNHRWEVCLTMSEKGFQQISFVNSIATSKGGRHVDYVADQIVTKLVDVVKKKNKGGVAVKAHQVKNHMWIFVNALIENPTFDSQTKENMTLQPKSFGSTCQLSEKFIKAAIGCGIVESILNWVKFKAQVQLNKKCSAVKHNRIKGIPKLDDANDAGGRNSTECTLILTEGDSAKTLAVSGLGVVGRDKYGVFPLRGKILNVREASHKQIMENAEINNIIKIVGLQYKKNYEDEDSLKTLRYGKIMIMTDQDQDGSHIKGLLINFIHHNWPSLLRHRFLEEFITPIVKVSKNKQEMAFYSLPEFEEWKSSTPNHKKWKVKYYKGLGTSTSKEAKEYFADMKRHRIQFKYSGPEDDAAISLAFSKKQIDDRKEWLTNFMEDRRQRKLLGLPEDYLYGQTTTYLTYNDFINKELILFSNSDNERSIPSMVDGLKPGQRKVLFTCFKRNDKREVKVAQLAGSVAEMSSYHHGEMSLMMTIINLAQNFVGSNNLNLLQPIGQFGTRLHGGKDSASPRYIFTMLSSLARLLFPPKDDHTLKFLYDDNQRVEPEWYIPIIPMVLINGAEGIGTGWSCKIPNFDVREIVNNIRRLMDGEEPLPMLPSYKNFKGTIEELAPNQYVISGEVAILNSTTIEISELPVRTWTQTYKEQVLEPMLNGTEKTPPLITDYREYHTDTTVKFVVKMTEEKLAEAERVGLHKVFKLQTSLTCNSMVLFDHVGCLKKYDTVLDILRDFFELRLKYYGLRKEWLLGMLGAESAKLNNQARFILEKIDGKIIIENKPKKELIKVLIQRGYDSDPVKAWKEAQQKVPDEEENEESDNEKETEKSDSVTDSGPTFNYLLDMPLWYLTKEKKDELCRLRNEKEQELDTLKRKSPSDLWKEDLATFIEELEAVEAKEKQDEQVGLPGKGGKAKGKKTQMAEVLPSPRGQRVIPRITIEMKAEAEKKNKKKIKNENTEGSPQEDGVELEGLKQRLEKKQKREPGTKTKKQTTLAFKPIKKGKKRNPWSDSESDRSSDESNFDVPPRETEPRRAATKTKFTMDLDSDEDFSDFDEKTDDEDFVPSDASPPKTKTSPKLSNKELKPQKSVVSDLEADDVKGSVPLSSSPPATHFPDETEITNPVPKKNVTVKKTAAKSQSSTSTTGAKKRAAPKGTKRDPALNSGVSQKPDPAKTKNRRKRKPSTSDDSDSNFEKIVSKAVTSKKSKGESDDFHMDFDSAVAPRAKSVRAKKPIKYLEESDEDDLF

With `Nc1c(N=[Se]=O)c(=O)[nH]c(=O)n1Cc1ccccc1Cl` the melting point was over 300 °C.
`O=c1[nH]cc(F)c(=O)[nH]1` [5-Fluorouracil, reference compound] showed an IC50 [1] of 7.37 ± 0.29 µM, an IC50 [2] of 12.3 ± 0.53 µM and an IC50 [3] of 10.1 ± 0.44 µM.
For `CC1(C)CC(=O)C=C(Nc2c(N)[nH]c(=O)[nH]c2=O)C1` [Compound 3a, 6-Amino-5-((5,5-dimethyl-3-oxocyclohex-1-en-1-yl)amino)pyrimidine-2,4(1H,3H)-dione], the IC50 [1] was 14.3 ± 0.83 µM, the IC50 [2] was 30.7 ± 0.76 µM and the IC50 [3] was 27.1 ± 1.91 µM. The anti-proliferative activity category [4] was “moderate to high”, the IC50 (Topoisomerase II; in vitro enzyme assay, read-out: Topoisomerase II IC50 (mean ± SD)) was 4.48 ± 0.65 µM and the IC50 (HSP90) was 1.78 ± 0.11 µM. The “phase at which the cell cycle is halted” value (HepG-2 cells [5]; HepG-2) was “G1-S phase”, the “%DIP G1 (cells in the G1-S phase)” value (HepG-2 cells [5]; HepG-2, 14.31 μM, untreated cells 43.82% (±2.61)) was 51.46% and the total apoptotic cells (HepG-2 cells [6]) was 37.93%. For the same molecule, the caspase-3 gene expression (caspase-3 gene) was “upregulating; also recorded: increased; also recorded: upregulated”, the “Topoisomerase II gene expression” value [7] was “downregulating; also recorded: downregulate” and the HSP90 gene expression (gene encoding HSP90) was “downregulating; also recorded: downregulated”. It also gave an IC50 at 24 h [8] of 80.8 ± 3.04 µM.
`CC1(C)CC(=O)C=C(Nc2c(N)n(Cc3ccccc3Cl)c(=O)[nH]c2=O)C1` [Compound 3b, 6-Amino-1-(2-chlorobenzyl)-5-((5,5-dimethyl-3-oxocyclohex-1-en-1-yl)amino)pyrimidine-2,4(1H,3H)-dione] gave an IC50 [1] of 40.4 ± 1.25 µM, an IC50 [2] of 36.4 ± 1.09 µM and an IC50 [3] of 46.1 ± 1.63 µM. The anti-proliferative activity category [4] was “low to moderate” and the melting point was 294 to 296 °C.
With `Cn1c(N)c(NC2=CC(=O)CC(C)(C)C2)c(=O)[nH]c1=S` [Compound 3c, 6-Amino-5-((5,5-dimethyl-3-oxocyclohex-1-en-1-yl)amino)-1-methyl-2-thioxo-2,3-dihydropyrimidin-4(1H)-one] the IC50 [1] was over 100 µM, the IC50 [2] was over 100 µM and the IC50 [3] was over 100 µM. For the same molecule, the anti-proliferative activity category [4] was “low” and the melting point was over 300 °C.
`CCn1c(N)c(NC2=CC(=O)CC(C)(C)C2)c(=O)[nH]c1=O` [Compound 3d, 6-Amino-5-((5,5-dimethyl-3-oxocyclohex-1-en-1-yl)amino)-1-ethylpyrimidine-2,4(1H,3H)-dione] showed an IC50 [1] of 21.6 ± 0.76 µM, an IC50 [2] of 33.3 ± 0.99 µM and an IC50 [3] of 31.4 ± 1.39 µM. The anti-proliferative activity category [4] was “moderate to high” and the melting point was over 300 °C.
With `CC1(C)CC(=O)C=C(Nc2c(N)n(Cc3ccccc3)c(=O)[nH]c2=O)C1` [Compound 3e, 6-Amino-1-benzyl-5-((5,5-dimethyl-3-oxocyclohex-1-en-1-yl)amino)pyrimidine-2,4(1H,3H)-dione] the IC50 [1] was 47.6 ± 1.39 µM, the IC50 [2] was 44 ± 1.28 µM and the IC50 [3] was over 100 µM. For the same molecule, the anti-proliferative activity category [4] was “low to moderate” and the melting point was 292 to 294 °C.
In the case of `Cn1c(N)c(NC2=CC(=O)CC(C)(C)C2)c(=O)[nH]c1=O` [Compound 3f, 6-Amino-5-((5,5-dimethyl-3-oxocyclohex-1-en-1-yl)amino)-1-methylpyrimidine-2,4(1H,3H)-dione], the IC50 [1] is reported as over 100 µM, the IC50 [2] is reported as over 100 µM and the IC50 [3] is reported as over 100 µM. For the same molecule, the anti-proliferative activity category [4] was “low” and the melting point was over 300 °C.
`O=c1[nH]c(=O)c2n[se]nc2[nH]1` [Compound 5a, [1,2, 5]selenadiazolo[3,4-d]pyrimidine-5,7(4H,6H)-dione] gave an IC50 [1] of 51.7 ± 2.09 µM, an IC50 [2] of 58 ± 2.13 µM and an IC50 [3] of 51.9 ± 1.48 µM. For the same molecule, the anti-proliferative activity category [4] was “low to moderate” and the melting point was over 300 °C.
`Cn1c(=S)[nH]c(=O)c2n[se]nc21` [Compound 5b, 4-Methyl-5-thioxo-5,6-dihydro-[1,2,5]selenadiazolo[3,4-d]pyrimidin-7(4H)-one] showed an IC50 [1] of 57.9 ± 2.43 µM, an IC50 [2] of 68.7 ± 3.86 µM and an IC50 [3] of 98.1 ± 3.45 µM. The anti-proliferative activity category [4] was “low to moderate” and the melting point was over 300 °C.
`CCn1c(=O)[nH]c(=O)c2n[se]nc21` [Compound 5c, 4-Ethyl-[1,2, 5]selenadiazolo[3,4-d]pyrimidine-5,7(4H,6H)-dione] gave an IC50 [1] of 33.4 ± 1.09 µM, an IC50 [2] of 42.5 ± 1.19 µM and an IC50 [3] of 39.7 ± 1.32 µM. It also gave a melting point of over 300 °C.
For `O=c1[nH]c(=O)n(Cc2ccccc2)c2n[se]nc12` [Compound 5d, 4-Benzyl-[1,2, 5]selenadiazolo[3,4-d]pyrimidine-5,7(4H,6H)-dione], the IC50 [1] was 17.7 ± 0.81 µM, the IC50 [2] was 26.8 ± 0.89 µM and the IC50 [3] was 29.3 ± 0.86 µM. For the same molecule, the anti-proliferative activity category [4] was “moderate to high”, the IC50 (Topoisomerase II) was 8.39 ± 1.07 µM and the IC50 (HSP90) was 7.69 ± 0.46 µM. It also gave a melting point of 260 to 261 °C and an IC50 at 24 h [8] of 54.6 ± 2.05 µM.
In the case of `Cn1c(=O)[nH]c(=O)c2n[se]nc21` [Compound 5e, 4-Methyl-[1,2, 5]selenadiazolo[3,4-d]pyrimidine-5,7(4H,6H)-dione], the IC50 [1] is reported as over 100 µM, the IC50 [2] is reported as over 100 µM and the IC50 [3] is reported as over 100 µM. For the same molecule, the anti-proliferative activity category [4] was “low” and the melting point was over 300 °C.
Work on `Cn1c(=O)c2n[se]nc2n(C)c1=O` [Compound 7, 4,6-Dimethyl-[1,2, 5]selenadiazolo[3,4-d]pyrimidine-5,7(4H,6H)-dione] yielded an IC50 [1] of over 100 µM, an IC50 [2] of over 100 µM and an IC50 [3] of over 100 µM. For the same molecule, the anti-proliferative activity category [4] was “low” and the melting point was 278 to 280 °C.
Work on `COc1cccc2c1C(=O)c1c(O)c3c(c(O)c1C2=O)C[C@@](O)(C(=O)CO)C[C@@H]3O[C@H]1C[C@H](N)[C@H](O)[C@H](C)O1` [Doxorubicin, reference compound] yielded an IC50 at 24 h [8] of 19.6 ± 0.74 µM.
With `CN(Cc1cnc2nc(N)nc(N)c2n1)c1ccc(C(=O)N[C@@H](CCC(=O)O)C(=O)O)cc1` [Methotrexate, reference compound] the IC50 [1] was 21.9 ± 1.08 µM, the IC50 [2] was 34.5 ± 2.19 µM and the IC50 [3] was 29.5 ± 2.19 µM.
